Consider three compounds from patent US4916141A, “(S)-7-(3-amino-1-pyrrolidinyl)-1-cyclop ropyl-6-fluoro-1,4-dihydro-4-oxo-1,8-naphthyridine-3-carboxylic acid” (Warner-Lambert Company, priority 1989, dated 1990).

≈ marks a conversion by molar mass, not a printed value. Where a name gives a salt, the structure may show the parent alone.

Assay [1] relates to Enterobacter cloacae MA 2646. Put plainly: microtitration dilution MIC. The assay is classed as cell-based. The following applies: MA2646, read-out: minimum inhibitory concentration (MIC). From the text:
(§1) The compounds of the invention display antibacterial activity when tested by the microtitration dilution method as described in Heifetz, et al, […]. Agents and Chemot. 6, 124 (1974), which is incorporated herein by reference. […] Pat. No. 4,649,144.

In assay [2] the test system is Escherichia coli Vogel. Kind of assay: microtitration dilution MIC. The assay is classed as cell-based. The following applies: read-out: minimum inhibitory concentration (MIC).
Text: as §1

The subject of assay [3] is Klebsiella pneumoniae MGH-2. Kind of assay: microtitration dilution MIC. The assay is classed as cell-based. As to conditions: MGH2, read-out: minimum inhibitory concentration (MIC).
Text: as §1

A further assay concerns Proteus rettgeri M 1771. Kind of assay: microtitration dilution MIC. As to conditions: Providencia rettgeri, M1771, read-out: minimum inhibitory concentration (MIC). The assay is classed as cell-based.
Text: as §1

Assay [4] concerns Pseudomonas aeruginosa UI-18. Put plainly: microtitration dilution MIC. The assay is classed as cell-based. As to conditions: UI18, read-out: minimum inhibitory concentration (MIC).
Text: as §1

Assay [5] concerns Staphylococcus aureus H 228. Kind of assay: microtitration dilution MIC. The assay is classed as cell-based. The following applies: H228, read-out: minimum inhibitory concentration (MIC).
Text: as §1

In assay [6] the test system is Staphylococcus aureus UC-76. Kind of assay: microtitration dilution MIC. The assay is classed as cell-based. The following applies: UC76, read-out: minimum inhibitory concentration (MIC).
Text: as §1

For assay [7], the system named is Staphylococcus faecalis MGH-2. Put plainly: microtitration dilution MIC. As to conditions: MGH2, read-out: minimum inhibitory concentration (MIC). The assay is classed as cell-based.
Text: as §1

In assay [8] the test system is Streptococcus pneumoniae SV-1. Put plainly: microtitration dilution MIC. The assay is classed as cell-based. The following applies: SV1, read-out: minimum inhibitory concentration (MIC).
Text: as §1

Assay [9] concerns Streptococcus pyogenes C-203. Put plainly: microtitration dilution MIC. The assay is classed as cell-based. The following applies: C203, read-out: minimum inhibitory concentration (MIC).
Text: as §1

Assay [10] has as its system Escherichia coli Vogel. Kind of assay: acute mouse protection test (PD50). The assay is classed as in vivo, mouse (female Charles River CD-1). The following applies: for median protective dose (PD50) P.O.: oral; for median protective dose (PD50) S.C.: subcutaneous. How it is done: (§2) The in vivo experiments on the bacteria named are expressed in terms of median protective doses (PD50) on the test animals to which the compounds were administered orally and subcutaneously. The measurement of PDso was carried out according to the following procedure:
(§3) Therapeutic activities of the compounds were compared in acute mouse protection tests in which 18-22 g female Charles River CD-1 mice were used. Oral and subcutaneous doses in twofold rising incremental series were administered concurrently with bacterial challenge. Challenges were accomplished by the intraperitoneal injection of an estimated 100 median lethal doses in 0.5 ml volumes of 5% hog gastric mucin or tryptic soy broth. Generally, greater than 90% of the untreated controls died within 48-72 hours. Final survival percentages, obtained after 4-7 days of observation among groups of 8-16 mice, were used to estimate median protective doses (PD50) by the log-probit method.

Assay [11] has as its system Pseudomonas aeruginosa UI-18. Put plainly: acute mouse protection test (PD50). The assay is classed as in vivo, mouse (female Charles River CD-1). As to conditions: for median protective dose (PD50) P.O.: oral; for median protective dose (PD50) S.C.: subcutaneous. How it is done: as §2, §3
In assay [12] the test system is Staphylococcus faecalis MGH-2. Kind of assay: acute mouse protection test (PD50). The assay is classed as in vivo, mouse (female Charles River CD-1). As to conditions: for median protective dose (PD50) P.O.: oral; for median protective dose (PD50) S.C.: subcutaneous. How it is done: as §2, §3
The subject of assay [13] is Streptococcus pneumoniae SV-1. Put plainly: acute mouse protection test (PD50). The assay is classed as in vivo, mouse (female Charles River CD-1). As to conditions: for median protective dose (PD50) P.O.: oral; for median protective dose (PD50) S.C.: subcutaneous. How it is done: as §2, §3
The subject of assay [14] is gram-positive and gram-negative bacteria. Put plainly: antibacterial activity in vitro and in vivo (summary statement). The following applies: in vitro as well as in vivo.
Text: The compounds of the invention display antibacterial activity when tested by the microtitration dilution method as described in Heifetz, et al, Antimicr. Agents and Chemot. 6, 124 (1974), which is incorporated herein by reference. By the use of the above reference method, the following minimum inhibitory concentration values (MICs in μg/ml) were obtained for the compound of the present invention, (S)-7-(3-amino-1-pyrrolidinyl)-1-cyclopropyl-6-fluoro-1,4-dihydro-4-oxo-1,8-naphthyridine-3-carboxylic acid, the corresponding (R) isomer and the racemic compound as described in U.S. Pat. No. 4,649,144.
as §2
Therapeutic activities of the compounds were compared in acute mouse protection tests in which 18-22 g female Charles River CD-1 mice were used. Oral and subcutaneous doses in twofold rising incremental series were administered concurrently with bacterial challenge. Challenges were accomplished by the intraperitoneal injection of an estimated 100 median lethal doses in 0.5 ml volumes of 5% hog gastric mucin or tryptic soy broth. Generally, greater than 90% of the untreated controls died within 48-72 hours. […]

Turning to `NC1CCN(c2nc3c(cc2F)c(=O)c(C(=O)O)cn3C2CC2)C1` (racemic) [Racemic, 7-(3-amino-1-pyrrolidinyl)-1-Cyclopropyl-6-fluoro-1,4-dihydro-4-oxo-1,8-naphthyridine-3-carboxylic acid], the MIC was 0.025 µg/mL (≈ 0.0752 µM) in [1]; 0.013 µg/mL (≈ 0.0391 µM) with Escherichia coli Vogel [2]; 0.025 µg/mL (≈ 0.0752 µM) in assay [3]; 0.1 µg/mL (≈ 0.301 µM) with Proteus rettgeri M 1771; 0.05 µg/mL (≈ 0.15 µM) in [4]; 0.2 µg/mL (≈ 0.602 µM) in assay [5]. Further, the MIC turned out to be 0.013 µg/mL (≈ 0.0391 µM) in assay [6], 0.2 µg/mL (≈ 0.602 µM) in assay [7], 0.2 µg/mL (≈ 0.602 µM) in assay [8] and 0.2 µg/mL (≈ 0.602 µM) in [9]. Also, the “median protective dose (PD50) P.O.” value with Escherichia coli Vogel [10] is 2.0; in assay [11] it was 7.3; in assay [12], 58; in assay [13] it was 32. Also, the “median protective dose (PD50) S.C.” value in the assay with Escherichia coli Vogel [10] worked out at 0.6; in assay [11] it was 3.2; in assay [12], 33; in assay [13], 14.

As to `N[C@@H]1CCN(c2nc3c(cc2F)c(=O)c(C(=O)O)cn3C2CC2)C1` ["R" Isomer, (R)-7-(3-Amino-1-pyrrolidinyl)-1-cyclopropyl)-6-fluoro-1,4-dihydro-4-oxo-1,8-naphthyridine-3carboxylic acid hydrochloride], the MIC in assay [1] is 0.025 µg/mL; with Escherichia coli Vogel [2] it was 0.013 µg/mL; in [3], 0.025 µg/mL; with Proteus rettgeri M 1771, 0.05 µg/mL; in [4], 0.4 µg/mL; in [5] it was 0.2 µg/mL. Also, the MIC stood at 0.05 µg/mL in assay [6], 0.2 µg/mL in assay [7], 0.1 µg/mL in assay [8] and 0.2 µg/mL in [9]. Also, the “median protective dose (PD50) P.O.” value is on record as 0.51 with Escherichia coli Vogel [10] and 45 in assay [12]. Also, the “median protective dose (PD50) S.C.” value in the assay on Escherichia coli Vogel [10] stood at 0.35; in assay [12], 34.

As for `N[C@H]1CCN(c2nc3c(cc2F)c(=O)c(C(=O)O)cn3C2CC2)C1` ["S" Isomer, (S)-7-(3-Amino-1-pyrrolidinyl)-1-cyclopropyl-6-fluoro-1,4-dihydro-4-oxo-1,8-naphthyridine-3-carboxylic acid], the MIC was 0.013 µg/mL (≈ 0.0391 µM) in assay [1]; 0.006 µg/mL (≈ 0.0181 µM) with Escherichia coli Vogel [2]; 0.013 µg/mL (≈ 0.0391 µM) in assay [3]; 0.025 µg/mL (≈ 0.0752 µM) in the assay with Proteus rettgeri M 1771; 0.1 µg/mL (≈ 0.301 µM) in assay [4]; 0.05 µg/mL (≈ 0.15 µM) in assay [5]. In addition, the MIC amounted to 0.013 µg/mL (≈ 0.0391 µM) in [6], 0.1 µg/mL (≈ 0.301 µM) in assay [7], 0.05 µg/mL (≈ 0.15 µM) in [8] and 0.05 µg/mL (≈ 0.15 µM) in assay [9]. The “median protective dose (PD50) P.O.” value in the assay with Escherichia coli Vogel [10] was found to be 0.7; in assay [11], 3.5; in assay [12] it was 19; in assay [13], 19. Also, the “median protective dose (PD50) S.C.” value in the assay on Escherichia coli Vogel [10] is on record as 0.35; in [11], 2.1; in assay [12], 14; in assay [13], 9. In addition, the “antibacterial activity compared with R isomer and racemic compound” value in [14] is “not only better than its opposite R isomer but also better than the racemic compound”; in assay [14] (listed as S form), “significantly better activity against both gram-positive and gram-negative bacteria in vitro as well as in vivo”.
